The text below walks through data of patent US20250090510A1, “eIF4G1-eIF1 INHIBITORS AND USE THEREOF” (YEDA RESEARCH AND DEVELOPMENT CO. LTD., priority 2022, published 2025).

For experiment [1], the system named is HEK293T cells with eIF4G1 knockdown. Nature of the experiment: Puromycin labeling after control or eIF4G1 siRNA. Type of experiment: cell-based, human. The settings on record: for IC50: Homo sapiens, HEK-293T, 48 h, 3 h treatment, read-out: IC-50, puromycin labeling. How it is done: (§1) FIGS. 3A-F: i14G1-10 and i14G1-12 inhibit mRNA translation and sensitize cell survival of eIF4G1 and eIF1 depleted cells. (3A) In-vitro translation using rabbit reticulocyte lysate which was pre-incubated with different concentrations of i14G1-10 or i14G1-12 for 10 minutes followed by the addition of capped firefly luciferase mRNA. After 90 minutes at 30° C., the luminescence signal was measured and the IC50 was calculated. The data represents mean±SEM of 6 independent repeats. (3B) HEK293T cells were treated with DMSO (vehicle control), and sub-cytotoxic concentrations of i14G1-10 (20 μM) and i14G1-12 (10 μM) for 3h. Cell lysates were then subjected to sucrose gradient sedimentation to obtain polysome profiles. (3C) HEK293T cells were treated with the indicated concentrations of i14G1-10 and i14G-12 for 3 h, followed by the addition of puromycin (10 μg/ml) for 5 minutes, after which cells were lysed and analyzed by western blot using an anti-puromycin antibody and anti-GAPDH antibody that serves as a loading control. The graph represents the mean±SEM chemiluminescence signal intensity of puromycin labeling normalized to GAPDH of 3 independent experiments. The calculated IC-50 is shown. (3D) HEK293T cells were transfected with either control or eIF4G1 siRNA in the absence or presence of eIF4G1 expression plasmid. As the eIF4G1 siRNA pool is directed against the 3′UTR, which is absent from the eIF4G1 expression plasmid, the exogenous eIF4G1 is resistant to the siRNA. 48 h after transfection, cells were treated with the indicated concentrations of i14G1-10 and i14G-12 for 3 h, followed by a 5 minutes puromycin pulse as described in 3C. The graph represents the mean±SEM chemiluminescence signal intensity of puromycin labeling normalized to GAPDH of 3 independent experiments. The calculated IC-50 is shown. (3E) The graphs represent cell viability of the indicated cell lines in the presence of increasing concentrations of i14G1-10 and i14G1, analyzed by Luminescent Cell Viability Assay. […]

In experiment [2] the test system is HEK293T cells. Nature of the experiment: Polysome profile by sucrose gradient sedimentation. The class given is cell-based, human. Conditions: i14G1-12 10 μM, 3 h; for 80S monoribosomes in polysome profile: i14G1-10 20 μM. How it is done: as §1, with “48 h after transfection, cells were treated with the indicated concentrations of i14G1-10 and i14G-12 for 3 h, followed by a 5 minutes puromycin pulse as described in 3C. The graph represents the mean±SEM chemiluminescence signal intensity of puromycin labeling normalized to GAPDH of 3 independent experiments.” left out
Polysome profile and real-time PCR. […] Gradients were fractionated with continuous absorbance measurement at 254 nm using ISCO absorbance detector UA-6. Fractions were pooled according to their absorbance into Free, Light, and Heavy ribosomal fractions. […]

Experiment [3] concerns HEK293T cells. The experiment can be described thus: Cell cycle analysis, propidium iodide flow cytometry. The class given is cell-based, human. The settings on record: i14G1-10 20 uM, 16 hours; for cells in S phase / sub-G1 dead cells: i14G1-12 1 uM. How it is done: FIGS. 3A-F: i14G1-10 and i14G1-12 inhibit mRNA translation and sensitize cell survival of eIF4G1 and eIF1 depleted cells. (3A) In-vitro translation using rabbit reticulocyte lysate which was pre-incubated with different concentrations of i14G1-10 or i14G1-12 for 10 minutes followed by the addition of capped firefly luciferase mRNA. After 90 minutes at 30° C., the luminescence signal was measured and the IC50 was calculated. The data represents mean±SEM of 6 independent repeats. (3B) HEK293T cells were treated with DMSO (vehicle control), and sub-cytotoxic concentrations of i14G1-10 (20 μM) and i14G1-12 (10 μM) for 3h. Cell lysates were then subjected to sucrose gradient sedimentation to obtain polysome profiles. (3C) HEK293T cells were treated with the indicated concentrations of i14G1-10 and i14G-12 for 3 h, followed by the addition of puromycin (10 μg/ml) for 5 minutes, after which cells were lysed and analyzed by western blot using an anti-puromycin antibody and anti-GAPDH antibody that serves as a loading control. The graph represents the mean±SEM chemiluminescence signal intensity of puromycin labeling normalized to GAPDH of 3 independent experiments. The calculated IC-50 is shown. (3D) HEK293T cells were transfected with either control or eIF4G1 siRNA in the absence or presence of eIF4G1 expression plasmid. As the eIF4G1 siRNA pool is directed against the 3′UTR, which is absent from the eIF4G1 expression plasmid, the exogenous eIF4G1 is resistant to the siRNA. 48 h after transfection, cells were treated with the indicated concentrations of i14G1-10 and i14G-12 for 3 h, followed by a 5 minutes puromycin pulse as described in 3C. The graph represents the mean±SEM chemiluminescence signal intensity of puromycin labeling normalized to GAPDH of 3 independent experiments. The calculated IC-50 is shown. (3E) The graphs represent cell viability of the indicated cell lines in the presence of increasing concentrations of i14G1-10 and i14G1, analyzed by Luminescent Cell Viability Assay. (3F) Pie charts showing the cell cycle distribution of HEK293T cells treated with DMSO, i14G1-10 and i14G1-12.
Cell cycle and cell viability analyses. HEK293T were treated with DMSO, i14G1-10 (20 uM) and i14G1-12 (1 uM) for 16 hours and then were trypsinized, washed twice with ice cold PBS and fixed overnight in 70% ethanol. Then cells were washed twice with ice cold PBS and resuspended in staining buffer (0.1% triton X-100, 2 mg RNase A and […]), and incubated at 37° C. for 15 minutes. Cells were monitored by BC LSRII flow cytometer and data was analyzed using Modfit Lt Software.
This was true in breast cancer (MCF7), lung cancer (A549), colorectal cancer (HCT116), ovarian cancer (OVCAR8) and in a bone cancer sarcoma cell line (U20S). To examine whether the growth defect is associated with cell cycle progression, control and drug treated cells were subjected to DNA staining by propidium iodide and then a flow cytometry analysis to determine their distribution in the sub-G1 (dead cells), G1, S and G2/M phases of the cell cycle.

Another experiment deals with parental NIH3T3 cells. The experiment can be described thus: Polysome profiling and real-time PCR in parental cells. Type of experiment: cell-based, mouse. Conditions: i14G1-10 30 μM, i14G1-12 15 μM, 3 h. On the technique in general: In qPCR the cycle at which signal appears reflects the starting amount.

Like-named read-outs stand apart in the source and are kept apart here.

With `Cn1ccnc1S/C(=C/C=C(C#N)C#N)c1ccc(Cl)cc1` [i14G1-12], in experiment [1] (control siRNA), the IC50 was found to be 5.65 µM. In addition, the IC50 in experiment [1] (eIF4G1 siRNA knockdown) came to 80 µM. Also, in the experiment on HEK293T cells [2], the “80S monoribosomes in polysome profile” value was “increase in 80S monoribosomes” and the “heavy polysomal fractions in polysome profile” value is recorded as “substantial decrease in the heavy polysomal fractions”. In addition, in the experiment on HEK293T cells [3], the “cells in S phase” value is listed as “reduction in S” and the sub-G1 dead cells entry is listed as “elevation in sub-G1 dead cells”. For the same compound, in the experiment with parental NIH3T3 cells, the “overall translation, polysome to monosome ratio (P/M)” value is on record as “significant reduction in translation efficiency” and the “translation of ISR genes in polysome fractions” value is listed as “upregulated”.

`O=C(/C=C/Sc1ccc(C(F)(F)F)cn1)c1ccccc1` [i14G1-10]: the “inhibition of translation upon depletion of eIF4G1” value in experiment [1] (eIF4G1 siRNA vs control siRNA) is “enhanced”. In addition, the “80S monoribosomes in polysome profile” value in the experiment on HEK293T cells [2] is listed as “increase in 80S monoribosomes”. In the experiment with HEK293T cells [3], the “cells in G2/M phase of the cell cycle” value is reported as “dramatic accumulation of cells in the G2/M phase”, the “cells in S phase” value is listed as “reduction in S” and the sub-G1 dead cells entry is given as “elevation in sub-G1 dead cells”. Also, in the experiment with parental NIH3T3 cells, the “overall translation, polysome to monosome ratio (P/M)” value is listed as “significant reduction in translation efficiency” and the “translation of ISR genes in polysome fractions” value is “upregulated”.
